# Results as given in US10195196B2, “1,4-disubstituted pyridazine analogs there of and methods for treating SMN-deficiency-related conditions” (NOVARTIS AG, priority 2012, dated 2019).
# System: SMN protein
# Experiment: cellular SMN ELISA (SMN protein elevation)
# Assay type: cell-based
# Settings: myoblast cell line from SMNdelta7 mouse model, 24 hours treatment; for SMN activity Fold: fold activation over DMSO control
# Method in brief: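 SMNdelta7 mouse-derived myoblasts were treated with compound for 24 h, then lysed. SMN protein was quantified by sandwich ELISA (HRP/TMB, 450 nm) and reported as fold over DMSO and EC50, over 20 nM–10 μM or 100 pM–10 μM depending on condition.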
# [1] = ELISA condition 2: compound concentration 100 pM-10 uM
# [2] = ELISA condition 1: compound concentration range 20 nM-10 uM
Compound,EC50 [1] [nM],SMN activity Fold [1] [Fold],EC50 [2] [nM],SMN activity Fold [2] [Fold]
"CN(c1ccc(-c2cc3c(cc2O)-c2nc(N)sc2C3)nn1)C1CC(C)(C)NC(C)(C)C1 [Example 35-5, 2-amino-6-(6-(methyl(2,2,6,6-tetramethylpiperidin-4-yl)amino)pyridazin-3-yl)-8H-indeno[1,2-d]thiazol-5-ol]",6,2.44,–,–
"CC1(C)CC(Cc2ccc(-c3ccc(-n4cccn4)cc3O)nn2)CC(C)(C)N1 [Example 21-2, 5-(1H-pyrazol-1-yl)-2-(6-((2,2,6,6-tetramethylpiperidin-4-yl)methyl)pyridazin-3-yl)phenol]",206,2.69,–,–
"CN(c1ccc(-c2cc(F)c(-c3cn[nH]c3)cc2O)nn1)C1CC(C)(C)NC(C)(C)C1 [Example 34-2, 4-fluoro-2-(6-(methyl(2,2,6,6-tetramethylpiperidin-4-yl)amino)pyridazin-3-yl)-5-(1H-pyrazol-4-yl)phenol]",2,2.49,–,–
"Cc1nc(-c2ccc(-c3ccc(N(C)C4CC(C)(C)NC(C)(C)C4)nn3)c(O)c2)c[nH]1 [Example 42-9, 2-(6-(methyl(2,2,6,6-tetramethylpiperidin-4-yl)amino)pyridazin-3-yl)-5-(2-methyl-1H-imidazol-4-yl)phenol]",15,2.85,–,–
"CN(c1ccc(-c2cc3ccc(CN4CCCCC4)cc3cc2O)nn1)C1CC(C)(C)NC(C)(C)C1 [Example 24-2, 3-(6-(methyl(2,2,6,6-tetramethylpiperidin-4-yl)amino)pyridazin-3-yl)-7-(piperidin-1-ylmethyl)naphthalen-2-ol]",157,2.33,–,–
"CC1CC(Oc2ccc(-c3ccc(-n4cccn4)cc3O)nn2)CCN1 (single isomer, unassigned) [Example 17-7]",617,2.50,–,–
"Oc1cc(-n2cccn2)ccc1-c1ccc(OC2CCNCC2F)nn1 (centres unmarked) [Example 17-10, 2-(6-((3-fluoropiperidin-4-yl)oxy)pyridazin-3-yl)-5-(1H-pyrazol-1-yl)-phenol]",945,2.03,–,–
"COc1cc(-c2cc(O)c(-c3ccc(N(C)C4CC(C)(C)NC(C)(C)C4)nn3)c(F)c2)ccn1 [Example 40-1, 3-fluoro-5-(2-methoxypyridin-4-yl)-2-(6-(methyl(2,2,6,6-tetramethylpiperidin-4-yl)amino)pyridazin-3-yl)phenol]",79,2.58,–,–
"CN(c1ccc(-c2cc3ccc(C#N)cc3cc2O)nn1)C1CC(C)(C)NC(C)(C)C1 [Example 24-1, 7-hydroxy-6-(6-(methyl(2,2,6,6-tetramethylpiperidin-4-yl)amino)pyridazin-3-yl)-2-naphthonitrile]",16,3.14,–,–
"CN(c1ccc(-c2cc3c(cc2O)CCn2cncc2-3)nn1)C1CC(C)(C)NC(C)(C)C1 [Example 35-6, 9-(6-(methyl(2,2,6,6-tetramethylpiperidin-4-yl)amino)pyridazin-3-yl)-5,6-dihydroimidazo[5,1-a]isoquinolin-8-ol]",51,2.21,–,–
"CN(c1ccc(-c2c(O)cc(-c3ccn(C)c(=O)c3)cc2F)nn1)C1CC(C)(C)NC(C)(C)C1 [Example 40-3, 4-(3-fluoro-5-hydroxy-4-(6-(methyl(2,2,6,6-tetramethylpiperidin-4-yl)amino)pyridazin-3-yl)phenyl)-1-methylpyridin-2(1H)-one]",11,3.03,–,–
"CN(c1ccc(-c2ccc3ccncc3c2)nn1)C1CC(C)(C)NC(C)(C)C1 [Example 1-14, 6-(isoquinolin-7-yl)-N-methyl-N-(2,2,6,6-tetramethylpiperidin-4-yl)pyridazin-3-amine]",252,3.13,–,–
"CN1CC[C@@H]2CN(c3ccc(-c4ccc(-c5ccn(C)c(=O)c5)cc4O)nn3)C[C@@H]21 [Example 43-5, 4-(3-hydroxy-4-(6-((3aR,6aR)-1-methylhexahydropyrrolo[3,4-b]pyrrol-5(1H)-yl)pyridazin-3-yl)phenyl)-1-methylpyridin-2(1H)-one]",159,2.29,–,–
"CN(c1ccc(-c2cc(C(F)(F)F)ccc2O)nn1)C1CC(C)(C)NC(C)(C)C1 [Example 3-7, 2-{6-[methyl-(2,2,6,6-tetramethyl-piperidin-4-yl)-amino]-pyridazin-3-yl}-4-trifluoromethyl-phenol]",–,–,4530,2.67
"Oc1ccc2cc(-c3ccc(C4CCNCC4)nn3)c(O)cc2c1 [Example 19-7, 3-(6-(piperidin-4-yl)pyridazin-3-yl)naphthalene-2,7-diol]",37,3.07,–,–
"CN(c1ccc(-c2ccc(C3=CCNCC3)cc2O)nn1)C1CC(C)(C)NC(C)(C)C1 [Example 41-15, 2-(6-(methyl(2,2,6,6-tetramethylpiperidin-4-yl)amino)pyridazin-3-yl)-5-(1,2,3,6-tetrahydropyridin-4-yl)phenol]",145,2.56,–,–

Compound,EC50 [1] [nM],SMN activity Fold [1] [Fold],EC50 [2] [nM],SMN activity Fold [2] [Fold]
"CN(c1ccc(-c2cc3ccc(C(F)F)cc3cc2O)nn1)C1CC(C)(C)NC(C)(C)C1 [Example 24-10, 7-(difluoromethyl)-3-(6-(methyl(2,2,6,6-tetramethylpiperidin-4-yl)amino)pyridazin-3-yl)naphthalen-2-ol]",113,3.14,–,–
"CN(c1ccc(-c2ccc3cccnc3c2)nn1)C1CC(C)(C)NC(C)(C)C1 [Example 1-12, N-methyl-6-(quinolin-7-yl)-N-(2,2,6,6-tetramethyl-piperidin-4-yl)pyridazin-3-amine]",367,2.54,–,–
"CC1(C)CC(Oc2ccc(-c3cc4ccc(O)cc4cc3O)nn2)CC(C)(C)N1 [Example 20-1, 3-(6-((2,2,6,6-tetramethylpiperidin-4-yl)oxy)pyridazin-3-yl)naphthalene-2,7-diol]",18,2.75,–,–
"CC1(C)C=C(c2ccc(-c3cc4ccc(O)cc4cc3O)nn2)CC(C)(C)N1 [Example 19-5, 3-(6-(2,2,6,6-tetramethyl-1,2,3,6-tetrahydropyridin-4-yl)pyridazin-3-yl)naphthalene-2,7-diol]",402,2.58,–,–
"Cc1nc2ccc(-c3ccc(NC4CC(C)(C)NC(C)(C)C4)nn3)cc2o1 [Example 2-3, 6-(2-methylbenzo-[d]oxazol-6-yl)-N-(2,2,6,6-tetramethyl-piperidin-4-yl)pyridazin-3-amine]",–,–,1200,2.46
"Oc1ccc2cc(-c3ccc(C4=CCNCC4)nn3)c(O)cc2c1 [Example 19-4, 3-(6-(1,2,3,6-tetrahydropyridin-4-yl)pyridazin-3-yl)naphthalene-2,7-diol]",25,2.47,–,–
"CN(c1ccc(-c2cc(C3=CCCC3)ccc2O)nn1)C1CC(C)(C)NC(C)(C)C1 [Example 32-5, 4-(cyclopent-1-en-1-yl)-2-(6-(methyl(2,2,6,6-tetramethylpiperidin-4-yl)amino)pyridazin-3-yl)phenol]",231,2.52,–,–
"Cc1nc(-c2ccc(-c3ccc(N(C)C4CC(C)(C)NC(C)(C)C4)nn3)c(O)c2)cn1C [Example 42-10, 5-(1,2-dimethyl-1H-imidazol-4-yl)-2-(6-(methyl(2,2,6,6-tetramethylpiperidin-4-yl)amino)pyridazin-3-yl)phenol]",57,3.10,–,–
"CC1CN(c2ccc(-c3ccc(-n4cccn4)cc3O)nn2)CC(C)N1 (centres unmarked) [Example 18-4, 2-[6-(3,5-dimethyl-piperazin-1-yl)-pyridazin-3-yl]-5-pyrazol-1-yl-phenol]",388,2.84,–,–
"CN(c1ccc(-c2cc3c(cc2O)C(=O)CC3)nn1)C1CC(C)(C)NC(C)(C)C1 [Example 35-1, 6-hydroxy-5-(6-(methyl(2,2,6,6-tetramethylpiperidin-4-yl)amino)pyridazin-3-yl)-2,3-dihydro-1H-inden-1-one]",27,2.79,–,–
"CN(c1ccc(-c2ccc(Cl)cc2O)nn1)C1CC(C)(C)N(C)C(C)(C)C1 [Example 3-2, 5-chloro-2-(6-(methyl(1,2,2,6,6-pentamethylpiperidin-4-yl)amino)pyridazin-3-yl)phenol]",–,–,1070,2.06
"CC1(C)CC(Nc2ccc(-c3ccccc3O)nn2)CC(C)(C)N1 [Example 1-3, 2-(6-(2,2,6,6-tetramethylpiperidin-4-ylamino)-pyridazin-3-yl)phenol]",726,2.45,–,–
"CN(c1ccc(-c2c(O)cc(-c3cnn(C)c3)cc2F)nn1)C1CC(C)(C)NC(C)(C)C1 [Example 40-8, 3-fluoro-2-(6-(methyl(2,2,6,6-tetramethylpiperidin-4-yl)amino)pyridazin-3-yl)-5-(1-methyl-1H-pyrazol-4-yl)phenol]",16,3.18,–,–
"COc1cc(-c2ccc(-c3ccc(N(C)C4CC(C)(C)NC(C)(C)C4)nn3)c(O)c2)ccn1 [Example 41-8, 5-(2-methoxypyridin-4-yl)-2-(6-(methyl(2,2,6,6-tetramethylpiperidin-4-yl)amino)pyridazin-3-yl)phenol]",62,3.18,–,–
"CN1C[C@@H]2CN(c3ccc(-c4ccc(-c5ccn(C)c(=O)c5)cc4O)nn3)C[C@@H]2C1 [Example 43-4, 4-(3-hydroxy-4-(6-(5-methylhexahydropyrrolo[3,4-c]pyrrol-2(1H)-yl)pyridazin-3-yl)phenyl)-1-methylpyridin-2(1H)-one]",41,2.94,–,–
